According to US20250320565A1, “DETECTING ANTIBIOTIC AND/OR CHEMICAL USE IN AQUATIC ANIMALS USING EPIGENETIC MEANS” (Evonik Operations GmbH, priority 2022, published 2025):

Test system: marble crayfish
Experiment: DNA methylation analysis (Agilent Sure Select Methyl-Seq) of abdominal tissue genomic DNA after antibiotic administration in feed
Assay type: in vivo
Settings: for number of DNA segments with significant differences between the control and the treated animals: Kruskal Wallis test, p<0.05, CpGs with at least 10 reads, average methylation <0.2 or >0.8 filtered out
Procedure: Marble crayfish collected from a population at Lake Reilinger, Germany were collected for the experiment and reared from juveniles in the laboratory. A total of 30 adult marbled crayfish were reared in one of 5 treatments with replicates as outlined in Table 1: • 1) Control—no antibiotic treatment • 2) TetraA—Acute tetracycline administration at 10 mg/kg of feed for 7 days • 3) TetraB—Prophylactic tetracycline administration at 5 mg/kg of feed for 42 days • 4) NorA—administered at 10 mg/kg of feed for 7 days • 5) NorB—administered at 5 mg/kg of feed for 28 days
All other rearing variables were kept consistent for all treatment groups. Crayfish were reared in plastic containers with 20° C. tap water, which was replaced every two weeks, exposed to natural day-night light rhythms and daily feeding.
A subset of abdominal tissue genomic DNA samples (Table 1) was utilized for analysis of the Agilent Sure Select Methyl-Seq Assay. Abdominal tissue was extracted from marble crayfish directly after treatment duration, DNA was then extracted as previously described (Tönges et al, 2021).
Library preparation was carried out as described in the Agilent's Sure Select Methyl-Seq Target Enrichment System for Illumina Multiplexed Sequencing Protocol (version E0, April 2018) to specifically analyze 361 genes. These genes were previously characterized as variably methylated genes in the marble crayfish genome, showing differential site-specific methylation patterns in marble crayfish from different wild populations (Gatzmann et al., 2018; Tönges et al., 2021b).
Quality controls were performed, and sample concentrations were measured on a 2,200 TapeStation (Agilent). Multiplexed samples were submitted to the DKFZ High Throughput Sequencing core facility and sequenced on a HiSeq system (Illumina). For data analysis, the 361 sequenced genes were mapped to the bisulfite sequencing datasets of the entire […] genome (Gatzmann et al., 2018; Xi and Li 2009).
To identify antibiotic-specific methylation ratios in genomic DNA from abdominal tissue, the average methylation of each sample within 1 kb of DNA segments was calculated.
The data sets of the 1754 DNA segments were further analyzed and only the CpG positions covered in all samples with at least 10 reads were used. In addition, the CpGs that were either completely methylated or unmethylated (average methylation <0.2 or >0.8) were filtered out.
The DNA segments of the PCA were further analyzed and only the CpG positions that have at least 10 reads in all samples were reused. Furthermore, the CpGs that are completely unmethylated or methylated (average methylation <0.2 or >0.8) were filtered out.

[1] = NorB: 5 mg/kg of feed for 28 days, compared with control and NorA
[2] = control vs the two treatment groups, average methylation

| SMILES | number of DNA segments with significant differences between the control and the treated animals | average methylation rates of eight CpGs of gene Scaffold_52370: 13110767-13110901 (NorA: 10 mg/kg of feed for 7 days, compared with control) | methylation rates of eight CpGs of gene Scaffold_36323: 7555-7623 [1] | methylation ratios of eight CpGs of gene Scaffold_52370: 13110767-13110901 [1] | PCA separation between treated and untreated samples and between the two treatment groups (PCA of differentially methylated DNA segments) | effect size Cohen's d of all other DNA segments (very small effect) [2] | number of DNA segments showing a small effect (Cohen's d>0.2) [2] | analysis of DMRs, treatment groups vs control (p>0.05) |
| --- | --- | --- | --- | --- | --- | --- | --- | --- |
| CCn1cc(C(=O)O)c(=O)c2cc(F)c(N3CCNCC3)cc21 [norfloxacin] | 71 | no significant difference | higher methylation rates in all CpGs | higher methylation ratios of all CpGs | robust separation | < 0.02 | 4 | no significant differences |
| CN(C)[C@@H]1C(O)=C(C(N)=O)C(=O)[C@@]2(O)C(O)=C3C(=O)c4c(O)cccc4[C@@](C)(O)[C@H]3C[C@@H]12 [tetracycline] | 432 |  |  |  |  |  |  |  |
